Assay [1] deals with T1, 5-hydroxytryptamine receptor 1A (Homo sapiens) (UniProt P08908).
T1 sequence (whole entry): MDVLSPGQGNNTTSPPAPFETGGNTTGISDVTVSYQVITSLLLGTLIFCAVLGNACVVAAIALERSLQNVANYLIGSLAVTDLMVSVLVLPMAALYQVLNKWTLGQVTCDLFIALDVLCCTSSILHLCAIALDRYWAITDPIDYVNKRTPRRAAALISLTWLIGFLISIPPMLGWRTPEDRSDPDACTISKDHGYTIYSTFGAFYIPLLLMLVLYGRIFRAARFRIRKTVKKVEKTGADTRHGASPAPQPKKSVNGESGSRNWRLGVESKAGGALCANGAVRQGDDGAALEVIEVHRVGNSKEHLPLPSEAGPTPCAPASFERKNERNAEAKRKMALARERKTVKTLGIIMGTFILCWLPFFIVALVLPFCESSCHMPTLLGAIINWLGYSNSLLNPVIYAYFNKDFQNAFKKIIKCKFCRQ
Briefly: Maximal stimulation of expressed human 5-hydroxytryptamine 1A receptor assayed by [35S]GTP-gamma-S, binding. It counts as functional.

The target in assay [2] is Sodium-dependent serotonin transporter (Rattus norvegicus, UniProt P31652). The assay can be described thus: Affinity at the 5-HT reuptake site labeled with [3H]paroxetine using rat frontal cortex membranes. It counts as tissue-based, Membrane.
The target in assay [3] is T2, 5-hydroxytryptamine receptor 1A (Homo sapiens, UniProt P08908).
T2 sequence (P08908 whole entry): T1 sequence (whole entry)
The assay can be described thus: Binding affinity towards 5-hydroxytryptamine 1A receptor in human using [3H]8-OH-DPAT as radioligand.

This passage reports Emax and Ki results from ChEMBL document CHEMBL1136348, “Advances toward new antidepressants beyond SSRIs: 1-aryloxy-3-piperidinylpropan-2-ols with dual 5-HT1A receptor antagonism/SSRI activities. Part 3” (Bioorg Med Chem Lett, 2003).

pKi: −log10 of the molar value.

Sodium-dependent serotonin transporter, sequence (P31652 whole entry): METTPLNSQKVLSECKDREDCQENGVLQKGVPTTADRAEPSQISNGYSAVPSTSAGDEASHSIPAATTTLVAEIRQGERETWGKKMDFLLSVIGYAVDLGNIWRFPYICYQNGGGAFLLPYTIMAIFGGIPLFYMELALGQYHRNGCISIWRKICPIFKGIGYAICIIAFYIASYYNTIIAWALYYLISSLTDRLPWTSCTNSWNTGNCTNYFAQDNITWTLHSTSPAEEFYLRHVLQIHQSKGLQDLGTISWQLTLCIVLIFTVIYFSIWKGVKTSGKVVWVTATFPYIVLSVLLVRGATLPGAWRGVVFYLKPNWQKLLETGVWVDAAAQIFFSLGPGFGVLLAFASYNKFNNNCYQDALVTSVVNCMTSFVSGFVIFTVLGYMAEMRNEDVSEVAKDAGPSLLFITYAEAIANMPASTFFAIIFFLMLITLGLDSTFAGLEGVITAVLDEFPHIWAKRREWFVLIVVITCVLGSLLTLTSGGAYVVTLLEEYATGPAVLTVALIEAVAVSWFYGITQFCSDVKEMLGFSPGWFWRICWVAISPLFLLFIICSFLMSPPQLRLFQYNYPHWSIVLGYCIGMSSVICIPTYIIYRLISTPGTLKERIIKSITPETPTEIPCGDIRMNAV

In assay [1], `COc1cc(OC)c2cc([C@@H]3CCN(C[C@H](O)COc4cccc5[nH]c(C)cc45)[C@@H](C)C3)sc2c1` yielded an Emax of 7.62%. Moreover, the negative-log Ki (pKi) in assay [2] was 8.55; in assay [3], 7.64.

Turning to `COc1cccc2sc([C@H]3C[C@H]4CC[C@@H](C3)N4C[C@H](O)COc3cccc4[nH]ccc34)cc12`, the pKi in assay [2] was 9.77.

In the case of `COc1cccc2sc([C@@H]3C[C@H]4CC[C@@H](C3)N4C[C@H](O)COc3cccc4[nH]c(C)cc34)cc12`, in assay [1], the Emax came out at 2.98%. The pKi in assay [2] is 9.16; in assay [3], 8.04.

In assay [1], `COc1cccc2sc([C@@H]3CCN(C[C@H](O)COc4cccc5[nH]c(C(N)=O)cc45)[C@@H](C)C3)cc12` returned an Emax of 12.8%. In addition, the pKi is 9.25 in assay [2] and 8.20 in assay [3].

With `COc1cccc2sc([C@H]3CCN(C[C@H](O)COc4cccc5[nH]c(C)cc45)[C@H](C)C3)cc12`, the Emax in assay [1] was determined as 2.38%. Besides, the pKi was 8.48 in assay [2] and 7.55 in assay [3].

As for `Cc1cc2c(OC[C@@H](O)CN3CC[C@@H](c4cc5c(F)cccc5s4)C[C@@H]3C)cccc2[nH]1`, in assay [1], the Emax amounted to 3.15%. Moreover, the pKi was 9.04 in assay [2] and 9.12 in assay [3].

In turn, `COc1ccc2cc([C@@H]3CCN(C[C@H](O)COc4cccc5[nH]c(C)cc45)[C@@H](C)C3)sc2c1` came in with an Emax in assay [1] of 3.21%. The pKi is 8.63 in assay [2] and 7.87 in assay [3].

In assay [1], `COc1cccc2sc([C@@H]3CCN(C[C@H](O)COc4cccc5[nH]c(C)cc45)[C@@H](C)C3)cc12` gave an Emax of 4.76%. For the same molecule, the pKi was 9.07 in assay [2] and 7.84 in assay [3].

`Cc1cc2c(OC[C@@H](O)CN3CC[C@@H](c4cc5ccccc5s4)C[C@@H]3C)cccc2[nH]1`: the maximum response (Emax) in assay [1] was found to be 6.09%. In addition, the pKi in assay [2] was 9.28; in assay [3], 8.15.

For the molecule `COc1cccc2sc([C@@H]3CCN(C[C@H](O)COc4cccc5oc(C)cc45)[C@@H](C)C3)cc12`, the Emax in assay [1] turned out to be 8.76%. The pKi was 7.42 in assay [2] and 8.39 in assay [3].

In assay [1], `COc1cccc2sc([C@@H]3CCN(C[C@H](O)COc4cccc5[nH]c(C(N)=O)cc45)[C@H](C)C3)cc12` showed an Emax of 7.21%. Also, the negative-log Ki (pKi) in assay [2] is 7.79; in assay [3] it was 7.90.

As to `COc1cccc2sc(C3CCN(C[C@H](O)COc4cccc5[nH]c(C)cc45)C(C)(C)C3)cc12` (stereo in doubt; 28), the pKi in assay [2] is 6.93; in assay [3] it was 8.03.

In turn, `Cc1cc2c(OC[C@@H](O)CN3CC[C@@H](c4cc5cccc(F)c5s4)C[C@@H]3C)cccc2[nH]1` came in with an Emax in assay [1] of 4.09%. Moreover, the pKi is 8.89 in assay [2] and 8.87 in assay [3].

The molecule `Cc1cc2c(OC[C@@H](O)CN3CC[C@@H](c4cc5cc(F)ccc5s4)C[C@@H]3C)cccc2[nH]1` displayed an Emax in assay [1] of 9.05%. The negative-log Ki (pKi) in assay [2] was 9.62; in assay [3], 8.25.

The molecule `Cc1cc2c(OC[C@@H](O)CN3CC[C@@H](c4cc5c(C)cccc5s4)C[C@@H]3C)cccc2[nH]1` registered an Emax in assay [1] of 6.32%. The negative logarithm of the Ki (pKi) in assay [2] was 9.21; in assay [3], 7.98.

For `COc1cccc2sc([C@H]3C[C@H]4CC[C@@H](C3)N4C[C@H](O)COc3cccc4[nH]c(C)cc34)cc12`, the Emax in assay [1] stood at 7.92%. The negative logarithm of the Ki (pKi) is 9.35 in assay [2] and 7.68 in assay [3].

`COc1cccc2sc([C@@H]3CCN(C[C@H](O)COc4cccc5[nH]c(C)cc45)[C@H](C)C3)cc12` displayed an Emax in assay [1] of 1.8%. The pKi was 7.54 in assay [2] and 7.69 in assay [3].

In assay [2], `COc1cccc2sc([C@H]3CCN(C[C@H](O)COc4cccc5oc(C)cc45)[C@@H](C)C3)cc12` showed a pKi of 7.12.

As to `COc1cccc2sc([C@@H]3C[C@H]4CC[C@@H](C3)N4C[C@H](O)COc3cccc4[nH]c(C(N)=O)cc34)cc12`, in assay [1], the Emax turned out to be 11.3%. The pKi in assay [2] is 9.43; in assay [3] it was 7.91.

On to `COc1cccc2sc(C3CCN(C[C@H](O)COc4cccc5[nH]c(C)cc45)C(C)(C)C3)cc12` (stereo in doubt; 29), for which the values for the pKi in assay [2] and in assay [3] were 7.69 and 7.37, respectively.

Consider `Cc1cc2c(OC[C@@H](O)CN3CC[C@@H](c4cc5cc(Cl)ccc5s4)C[C@@H]3C)cccc2[nH]1`, for which, in assay [1], the Emax came out at 8.42%. The pKi in assay [2] was 8.99; in assay [3], 7.81.

Turning to `Cc1cc(C)c2cc([C@@H]3CCN(C[C@H](O)COc4cccc5[nH]c(C)cc45)[C@@H](C)C3)sc2c1`, the pKi in assay [2] was 8.70; in assay [3], 6.98.

The molecule `COc1cccc2sc([C@@H]3C[C@H]4CC[C@@H](C3)N4C[C@H](O)COc3cccc4[nH]ccc34)cc12` had an Emax in assay [1] of 7.22%.

As for `COc1cccc2sc([C@@H]3CCN(C[C@H](O)COc4cccc5oc(C)cc45)[C@H](C)C3)cc12`, the pKi was 6.96 in assay [2] and 8.32 in assay [3].

With `Cc1cc2c(OC[C@@H](O)CN3CC[C@@H](c4cc5ccc(F)cc5s4)C[C@@H]3C)cccc2[nH]1`, the Emax in assay [1] stood at 7.26%. For the same molecule, the pKi in assay [2] was 9.41; in assay [3], 7.91.

Turning to `Cc1cc2c(OC[C@@H](O)CN3CC[C@@H](c4cc5cccc(F)c5s4)C[C@H]3C)cccc2[nH]1`, the pKi is 7.46 in assay [2] and 8.67 in assay [3].

In assay [1], `COc1cccc2sc([C@H]3CCN(C[C@H](O)COc4cccc5oc(C)cc45)[C@H](C)C3)cc12` registered an Emax of 6.49%. The figures for the pKi in assay [2] and in assay [3] were 7.82 and 7.57, respectively.

Regarding `Cc1cc2c(OC[C@@H](O)CN3CC[C@H](c4cc5cccc(F)c5s4)C[C@H]3C)cccc2[nH]1`, in assay [1], the Emax came to 6.35%. The pKi in assay [2] is 8.22; in assay [3] it was 8.01.

`COc1cccc2sc([C@H]3CCN(C[C@H](O)COc4cccc5[nH]c(C(N)=O)cc45)[C@@H](C)C3)cc12` had a pKi in assay [2] of 8.18.

In assay [2], `Cc1ccc2cc([C@@H]3CCN(C[C@H](O)COc4cccc5[nH]c(C)cc45)[C@@H](C)C3)sc2c1` had a negative-log Ki (pKi) of 8.89.

In the case of `COc1cccc2sc([C@H]3CCN(C[C@H](O)COc4cccc5[nH]c(C(N)=O)cc45)[C@H](C)C3)cc12`, the pKi in assay [2] is 8.91; in assay [3] it was 7.49.

In the case of `Cc1cc2c(OC[C@@H](O)CN3CC[C@H](c4cc5cccc(F)c5s4)C[C@@H]3C)cccc2[nH]1`, the figures for the negative logarithm of the Ki (pKi) in assay [2] and in assay [3] were 7.32 and 7.71, respectively.
